What was measured:
Experiment in all cases: KINOMEscan binding assay
[1] = target: T1, ABL1(F317L)-nonphosphorylated (Homo sapiens, UniProt P00519, F317L); details: read-out: % Retention on Solid Support
T1 construct: purchased DiscoveRx KINOMEscan
Procedure, shortened: (§1)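 i-CDK9 at 1 and 10 µM; competition binding against an immobilized active-site probe; >400-kinase panel.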

[2] = target: T2, ABL1(Q252H)-phosphorylated (Homo sapiens, UniProt P00519, Q252H); details: 1 µM i-CDK9; read-out: % Retention on Solid Support
T2 construct: purchased DiscoveRx KINOMEscan
Procedure, shortened: as §1

[3] = target: T3, ARK5 (Homo sapiens, UniProt O60285)
T3 construct: purchased DiscoveRx KINOMEscan
Procedure, shortened: as §1

[4] = target: T4, BRAF(V600E) (Homo sapiens, UniProt P15056, V600E); details: read-out: % Retention on Solid Support
T4 construct: purchased DiscoveRx KINOMEscan
Procedure, shortened: as §1

[5] = target: T5, CDKL1 (Homo sapiens, UniProt Q00532); details: 1 µM i-CDK9; read-out: % Retention on Solid Support
T5 construct: purchased DiscoveRx KINOMEscan
Procedure, shortened: as §1

[6] = target: T6, CLK3 (Homo sapiens, UniProt P49761); details: read-out: % Retention on Solid Support
T6 construct: purchased DiscoveRx KINOMEscan
T6 sequence (P49761 whole entry): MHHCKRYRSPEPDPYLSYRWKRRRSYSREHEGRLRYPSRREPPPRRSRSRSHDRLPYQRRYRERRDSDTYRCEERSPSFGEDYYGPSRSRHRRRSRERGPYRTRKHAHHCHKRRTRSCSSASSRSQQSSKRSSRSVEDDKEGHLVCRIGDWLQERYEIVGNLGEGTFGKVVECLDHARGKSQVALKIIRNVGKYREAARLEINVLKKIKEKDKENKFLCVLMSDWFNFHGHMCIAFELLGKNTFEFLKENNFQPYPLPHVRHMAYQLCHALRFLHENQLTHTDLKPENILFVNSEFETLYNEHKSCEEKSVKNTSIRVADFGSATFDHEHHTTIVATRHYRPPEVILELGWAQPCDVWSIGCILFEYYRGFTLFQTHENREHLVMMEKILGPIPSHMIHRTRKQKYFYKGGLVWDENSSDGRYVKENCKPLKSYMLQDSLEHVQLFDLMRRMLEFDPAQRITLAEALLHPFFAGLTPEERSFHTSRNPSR
Procedure, shortened: as §1

[7] = target: T7, DAPK2 (Homo sapiens, UniProt Q9UIK4); details: read-out: % Retention on Solid Support
T7 construct: purchased DiscoveRx KINOMEscan
Procedure, shortened: as §1

[8] = target: T8, GRK1 (Homo sapiens, UniProt Q15835); details: read-out: % Retention on Solid Support
T8 construct: purchased DiscoveRx KINOMEscan
Procedure, shortened: as §1

[9] = target: T9, HIPK3 (Homo sapiens, UniProt Q9H422); details: read-out: % Retention on Solid Support
T9 construct: purchased DiscoveRx KINOMEscan
Procedure, shortened: as §1

[10] = target: T10, LRRK2 (Homo sapiens, UniProt Q5S007); details: 1 µM i-CDK9; read-out: % Retention on Solid Support
T10 construct: purchased DiscoveRx KINOMEscan
Procedure, shortened: as §1

[11] = target: T11, MARK2 (Homo sapiens, UniProt Q7KZI7); details: read-out: % Retention on Solid Support
T11 construct: purchased DiscoveRx KINOMEscan
Procedure, shortened: as §1

[12] = target: T12, MET(Y1235D) (Homo sapiens, UniProt P08581, Y1235D)
T12 construct: purchased DiscoveRx KINOMEscan
Procedure, shortened: as §1

[13] = target: T13, MRCKB (Homo sapiens, UniProt Q9Y5S2); details: read-out: % Retention on Solid Support
T13 construct: purchased DiscoveRx KINOMEscan
Procedure, shortened: as §1

[14] = target: T14, MYO3A (Homo sapiens, UniProt Q8NEV4); details: read-out: % Retention on Solid Support
T14 construct: purchased DiscoveRx KINOMEscan
T14 sequence (Q8NEV4 whole entry): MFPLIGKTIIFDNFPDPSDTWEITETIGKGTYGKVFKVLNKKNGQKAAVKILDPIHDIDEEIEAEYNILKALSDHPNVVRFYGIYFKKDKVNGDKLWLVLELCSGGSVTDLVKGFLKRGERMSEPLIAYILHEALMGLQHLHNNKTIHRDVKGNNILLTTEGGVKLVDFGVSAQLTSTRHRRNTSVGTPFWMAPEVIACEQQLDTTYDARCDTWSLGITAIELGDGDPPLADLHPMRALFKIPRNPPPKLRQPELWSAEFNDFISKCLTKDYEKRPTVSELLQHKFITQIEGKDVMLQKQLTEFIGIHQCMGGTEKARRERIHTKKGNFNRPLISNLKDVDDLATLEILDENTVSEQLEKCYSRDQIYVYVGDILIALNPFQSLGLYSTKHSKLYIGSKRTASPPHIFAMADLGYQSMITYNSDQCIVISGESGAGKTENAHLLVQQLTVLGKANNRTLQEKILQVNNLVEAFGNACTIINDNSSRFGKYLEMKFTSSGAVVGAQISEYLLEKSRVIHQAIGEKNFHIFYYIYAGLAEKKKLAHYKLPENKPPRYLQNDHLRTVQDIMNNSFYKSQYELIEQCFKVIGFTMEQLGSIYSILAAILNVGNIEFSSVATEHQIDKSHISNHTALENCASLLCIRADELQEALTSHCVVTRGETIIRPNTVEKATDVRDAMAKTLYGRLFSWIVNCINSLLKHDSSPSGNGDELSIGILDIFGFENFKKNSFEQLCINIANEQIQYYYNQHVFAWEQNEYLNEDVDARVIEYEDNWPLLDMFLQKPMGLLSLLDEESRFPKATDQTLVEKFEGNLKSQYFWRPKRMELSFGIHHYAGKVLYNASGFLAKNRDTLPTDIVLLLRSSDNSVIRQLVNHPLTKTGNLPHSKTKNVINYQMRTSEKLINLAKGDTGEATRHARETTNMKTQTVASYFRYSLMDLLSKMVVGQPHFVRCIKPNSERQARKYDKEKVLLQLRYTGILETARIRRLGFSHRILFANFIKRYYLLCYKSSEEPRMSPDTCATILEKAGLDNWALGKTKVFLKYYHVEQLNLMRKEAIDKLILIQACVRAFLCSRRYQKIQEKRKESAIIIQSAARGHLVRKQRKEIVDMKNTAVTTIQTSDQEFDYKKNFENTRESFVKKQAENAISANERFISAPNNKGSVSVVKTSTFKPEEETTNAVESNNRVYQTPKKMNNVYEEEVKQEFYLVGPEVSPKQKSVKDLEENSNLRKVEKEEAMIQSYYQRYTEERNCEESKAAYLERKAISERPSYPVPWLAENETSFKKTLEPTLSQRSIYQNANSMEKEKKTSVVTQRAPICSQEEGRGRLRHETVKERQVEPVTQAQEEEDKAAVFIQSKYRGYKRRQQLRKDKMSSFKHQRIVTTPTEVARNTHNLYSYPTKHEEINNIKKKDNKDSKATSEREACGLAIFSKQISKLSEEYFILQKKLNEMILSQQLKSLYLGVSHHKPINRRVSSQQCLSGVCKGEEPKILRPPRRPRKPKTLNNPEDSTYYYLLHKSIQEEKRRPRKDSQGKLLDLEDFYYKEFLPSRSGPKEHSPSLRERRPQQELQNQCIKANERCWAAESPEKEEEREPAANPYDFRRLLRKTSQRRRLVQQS
Procedure, shortened: as §1

[15] = target: T15, NEK1 (Homo sapiens, UniProt Q96PY6); details: read-out: % Retention on Solid Support
T15 construct: purchased DiscoveRx KINOMEscan
Procedure, shortened: as §1

[16] = target: T16, PDPK1 (Homo sapiens, UniProt O15530); details: read-out: % Retention on Solid Support
T16 construct: purchased DiscoveRx KINOMEscan
T16 sequence (O15530 1-556): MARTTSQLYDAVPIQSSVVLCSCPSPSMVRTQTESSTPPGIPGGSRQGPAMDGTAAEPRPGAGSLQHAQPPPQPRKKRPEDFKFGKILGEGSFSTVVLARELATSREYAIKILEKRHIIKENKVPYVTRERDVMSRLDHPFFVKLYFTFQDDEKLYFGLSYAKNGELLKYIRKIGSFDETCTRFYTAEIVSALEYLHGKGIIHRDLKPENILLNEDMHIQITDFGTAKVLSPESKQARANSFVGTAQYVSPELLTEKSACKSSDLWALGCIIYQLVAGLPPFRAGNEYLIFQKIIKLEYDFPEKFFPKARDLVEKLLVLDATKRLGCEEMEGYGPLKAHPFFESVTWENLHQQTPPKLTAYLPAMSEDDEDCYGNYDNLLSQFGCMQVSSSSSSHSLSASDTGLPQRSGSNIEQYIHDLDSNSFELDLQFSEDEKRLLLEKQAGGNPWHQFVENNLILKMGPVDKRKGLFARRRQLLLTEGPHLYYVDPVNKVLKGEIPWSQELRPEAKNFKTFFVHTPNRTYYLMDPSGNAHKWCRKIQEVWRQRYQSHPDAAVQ
Procedure, shortened: as §1

[17] = target: T17, PIK3CA(E545K) (Homo sapiens, UniProt P42336, E545K); details: read-out: % Retention on Solid Support
T17 construct: purchased DiscoveRx KINOMEscan
Procedure, shortened: as §1

[18] = target: T18, PIM3 (Homo sapiens, UniProt Q86V86); details: read-out: % Retention on Solid Support
T18 construct: purchased DiscoveRx KINOMEscan
Procedure, shortened: as §1

[19] = target: T19, PRKCD (Homo sapiens, UniProt Q05655); details: read-out: % Retention on Solid Support
T19 construct: purchased DiscoveRx KINOMEscan
T19 sequence (Q05655 whole entry): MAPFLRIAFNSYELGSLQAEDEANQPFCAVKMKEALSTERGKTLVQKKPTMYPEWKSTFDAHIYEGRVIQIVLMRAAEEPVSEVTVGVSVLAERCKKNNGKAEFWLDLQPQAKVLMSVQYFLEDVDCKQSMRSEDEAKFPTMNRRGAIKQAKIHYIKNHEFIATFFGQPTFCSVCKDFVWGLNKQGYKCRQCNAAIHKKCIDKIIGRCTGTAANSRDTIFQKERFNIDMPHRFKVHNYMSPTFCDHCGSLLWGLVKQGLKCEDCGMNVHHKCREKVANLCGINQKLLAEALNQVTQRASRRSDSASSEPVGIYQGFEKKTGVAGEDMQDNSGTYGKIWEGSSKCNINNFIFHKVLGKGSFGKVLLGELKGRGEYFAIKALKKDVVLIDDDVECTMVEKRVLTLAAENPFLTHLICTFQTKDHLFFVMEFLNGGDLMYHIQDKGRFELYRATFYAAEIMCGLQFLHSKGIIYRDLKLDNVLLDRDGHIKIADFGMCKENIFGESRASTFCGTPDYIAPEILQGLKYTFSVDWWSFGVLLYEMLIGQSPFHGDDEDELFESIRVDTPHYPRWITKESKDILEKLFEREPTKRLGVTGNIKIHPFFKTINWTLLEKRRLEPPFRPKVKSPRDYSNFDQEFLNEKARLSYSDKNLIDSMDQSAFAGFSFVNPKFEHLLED
Procedure, shortened: as §1

[20] = target: T20, PRKCQ (Homo sapiens, UniProt Q04759); details: read-out: % Retention on Solid Support
T20 construct: purchased DiscoveRx KINOMEscan
T20 sequence (Q04759 whole entry): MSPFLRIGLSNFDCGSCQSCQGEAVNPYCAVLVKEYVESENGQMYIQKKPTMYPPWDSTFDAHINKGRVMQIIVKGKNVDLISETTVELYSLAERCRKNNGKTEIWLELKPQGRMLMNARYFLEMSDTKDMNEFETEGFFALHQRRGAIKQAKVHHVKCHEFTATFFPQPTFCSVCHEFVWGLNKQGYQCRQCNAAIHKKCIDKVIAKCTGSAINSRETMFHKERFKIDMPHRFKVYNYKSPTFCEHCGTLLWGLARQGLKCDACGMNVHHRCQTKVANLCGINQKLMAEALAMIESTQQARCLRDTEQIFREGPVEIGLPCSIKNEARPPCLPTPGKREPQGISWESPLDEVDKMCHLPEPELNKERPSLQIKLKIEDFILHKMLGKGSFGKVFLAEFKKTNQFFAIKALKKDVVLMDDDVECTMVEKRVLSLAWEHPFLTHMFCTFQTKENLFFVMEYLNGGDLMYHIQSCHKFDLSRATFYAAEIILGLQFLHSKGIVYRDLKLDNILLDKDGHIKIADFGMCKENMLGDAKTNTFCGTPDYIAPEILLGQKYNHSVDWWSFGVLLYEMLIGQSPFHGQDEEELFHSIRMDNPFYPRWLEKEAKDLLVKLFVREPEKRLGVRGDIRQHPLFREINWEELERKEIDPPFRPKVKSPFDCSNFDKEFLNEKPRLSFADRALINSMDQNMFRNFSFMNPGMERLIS
Procedure, shortened: as §1

[21] = target: T21, PRKR (Homo sapiens, UniProt P19525)
T21 construct: purchased DiscoveRx KINOMEscan
T21 sequence (P19525 whole entry): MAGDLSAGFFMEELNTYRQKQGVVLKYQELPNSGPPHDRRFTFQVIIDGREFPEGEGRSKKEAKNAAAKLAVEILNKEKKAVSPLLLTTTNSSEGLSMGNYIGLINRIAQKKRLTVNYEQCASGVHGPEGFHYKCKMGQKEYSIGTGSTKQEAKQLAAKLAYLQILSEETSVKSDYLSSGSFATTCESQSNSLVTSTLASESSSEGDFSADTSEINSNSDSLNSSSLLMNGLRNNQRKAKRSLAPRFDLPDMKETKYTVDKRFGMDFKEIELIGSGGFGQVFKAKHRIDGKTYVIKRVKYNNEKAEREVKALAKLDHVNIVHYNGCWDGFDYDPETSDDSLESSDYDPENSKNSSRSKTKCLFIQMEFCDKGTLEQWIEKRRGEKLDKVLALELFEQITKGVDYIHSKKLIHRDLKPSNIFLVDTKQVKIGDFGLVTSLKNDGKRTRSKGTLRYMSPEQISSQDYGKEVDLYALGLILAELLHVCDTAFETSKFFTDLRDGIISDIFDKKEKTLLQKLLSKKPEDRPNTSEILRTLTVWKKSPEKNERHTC
Procedure, shortened: as §1

[22] = target: T22, RIPK1 (Homo sapiens, UniProt Q13546); details: read-out: % Retention on Solid Support
T22 construct: purchased DiscoveRx KINOMEscan
Procedure, shortened: as §1

[23] = target: T23, RIPK2 (Homo sapiens, UniProt O43353); details: read-out: % Retention on Solid Support
T23 construct: purchased DiscoveRx KINOMEscan
T23 sequence (O43353 whole entry): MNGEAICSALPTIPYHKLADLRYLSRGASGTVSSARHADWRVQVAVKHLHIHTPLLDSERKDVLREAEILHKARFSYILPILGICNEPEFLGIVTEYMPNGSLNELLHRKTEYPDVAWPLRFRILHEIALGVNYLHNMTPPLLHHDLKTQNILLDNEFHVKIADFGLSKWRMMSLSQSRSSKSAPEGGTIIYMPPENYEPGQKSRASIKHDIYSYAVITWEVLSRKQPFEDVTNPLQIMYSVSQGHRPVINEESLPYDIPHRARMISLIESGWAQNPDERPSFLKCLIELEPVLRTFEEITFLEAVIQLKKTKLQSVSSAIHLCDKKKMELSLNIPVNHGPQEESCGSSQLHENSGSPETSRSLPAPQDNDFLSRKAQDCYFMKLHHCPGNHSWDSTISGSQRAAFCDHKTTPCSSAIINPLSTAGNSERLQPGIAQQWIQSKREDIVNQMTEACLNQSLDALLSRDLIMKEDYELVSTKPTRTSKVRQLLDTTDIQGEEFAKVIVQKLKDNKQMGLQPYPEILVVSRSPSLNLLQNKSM
Procedure, shortened: as §1

[24] = target: T24, TNIK (Homo sapiens, UniProt Q9UKE5); details: read-out: % Retention on Solid Support
T24 construct: purchased DiscoveRx KINOMEscan
Procedure, shortened: as §1

`N[C@H]1CC[C@H](Nc2cc(-c3cccc(NCc4cccc(F)c4)n3)c(Cl)cn2)CC1` [i-CDK9, N2′-(trans-4-aminocyclohexyl)-5′-chloro-N6-(3-fluorobenzyl)-2,4′-bipyridine-2′,6-diamine] was tested, and the remaining binding at 1 µM ([1]; 1 µM i-CDK9) was 100%, the remaining binding at 10 µM ([1]; 10 µM i-CDK9) was 91% and the remaining binding at 1 µM [2] was 100%. The “% Retention on Solid Support” value ([3]; 1 µM i-CDK9) was 72%, the “% Retention on Solid Support” value ([3]; 10 µM i-CDK9) was 100% and the remaining binding at 1 µM ([4]; 1 µM i-CDK9) was 100%. It also gave a remaining binding at 10 µM ([4]; 10 µM i-CDK9) of 88%, a remaining binding at 1 µM [5] of 100% and a remaining binding at 1 µM ([6]; 1 µM i-CDK9) of 88%. It also gave a remaining binding at 10 µM ([6]; 10 µM i-CDK9) of 25%, a remaining binding at 1 µM ([7]; 1 µM i-CDK9) of 90% and a remaining binding at 10 µM ([7]; 10 µM i-CDK9) of 80%. For the same compound, the remaining binding at 1 µM ([8]; 1 µM i-CDK9) was 95%, the remaining binding at 10 µM ([8]; 10 µM i-CDK9) was 100% and the remaining binding at 1 µM ([9]; 1 µM i-CDK9) was 100%. The remaining binding at 10 µM ([9]; 10 µM i-CDK9) was 89%, the remaining binding at 1 µM [10] was 100% and the remaining binding at 1 µM ([11]; 1 µM i-CDK9) was 76%. For the same compound, the remaining binding at 10 µM ([11]; 10 µM i-CDK9) was 86%, the “% Retention on Solid Support” value ([12]; 1 µM i-CDK9) was 100% and the “% Retention on Solid Support” value ([12]; 10 µM i-CDK9) was 11%. The remaining binding at 1 µM ([13]; 1 µM i-CDK9) was 95%, the remaining binding at 10 µM ([13]; 10 µM i-CDK9) was 100% and the remaining binding at 1 µM ([14]; 1 µM i-CDK9) was 91%. For the same compound, the remaining binding at 10 µM ([14]; 10 µM i-CDK9) was 96%, the remaining binding at 1 µM ([15]; 1 µM i-CDK9) was 70% and the remaining binding at 10 µM ([15]; 10 µM i-CDK9) was 100%. It also gave a remaining binding at 1 µM ([16]; 1 µM i-CDK9) of 100%, a remaining binding at 10 µM ([16]; 10 µM i-CDK9) of 90% and a remaining binding at 1 µM ([17]; 1 µM i-CDK9) of 100%. It also gave a remaining binding at 10 µM ([17]; 10 µM i-CDK9) of 95%, a remaining binding at 1 µM ([18]; 1 µM i-CDK9) of 100% and a remaining binding at 10 µM ([18]; 10 µM i-CDK9) of 23%. The remaining binding at 1 µM ([19]; 1 µM i-CDK9) was 98%, the remaining binding at 10 µM ([19]; 10 µM i-CDK9) was 70% and the remaining binding at 1 µM ([20]; 1 µM i-CDK9) was 100%. For the same compound, the remaining binding at 10 µM ([20]; 10 µM i-CDK9) was 88%, the “% Retention on Solid Support” value ([21]; 1 µM i-CDK9) was 84% and the “% Retention on Solid Support” value ([21]; 10 µM i-CDK9) was 100%. The remaining binding at 1 µM ([22]; 1 µM i-CDK9) was 100%, the remaining binding at 10 µM ([22]; 10 µM i-CDK9) was 100% and the remaining binding at 1 µM ([23]; 1 µM i-CDK9) was 65%. For the same compound, the remaining binding at 10 µM ([23]; 10 µM i-CDK9) was 77%, the remaining binding at 1 µM ([24]; 1 µM i-CDK9) was 72% and the remaining binding at 10 µM ([24]; 10 µM i-CDK9) was 36%.

From publication PMC4490784, “Compensatory induction of MYC expression by sustained CDK9 inhibition via a BRD4-dependent mechanism” (eLife, 2015)
